Laboratory results from US9113629B2, “4-amino-6-(4-substituted-phenyl)-picolinates and 6-amino-2-(4-substituted-phenyl)-pyrimidine-4-carboxylates and their use as herbicides” (DOW AGROSCIENCES LLC, priority 2013, dated 2015).
Read-outs that look alike come from different tables or passages of the source.

What was measured:
[1] = test system: Key Broadleaf Weed and Crop Species; test: Post-emergent Test II herbicidal activity (Table 5); assay type: in vivo; settings: post-emergence, 336 h, 14 days after application; for pest or weed control at 70 g/ha: application rate 70 g ai/ha; for pest or weed control at 140 g/ha: application rate 140 g ai/ha
Summary of the method: (§1)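 Visual injury ratings (0 = no injury, 100 = complete kill) were taken 14 d after treatment, relative to untreated plants. Seedlings at the first–second true leaf stage received overhead spray at 187 L/ha; the highest rate was serially diluted to ½×, ¼×, ⅛× and 1/16×.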

[2] = test system: Key Grass and Sedge Weeds as well as Grass Crops; test: Post-emergent Test II herbicidal activity (Table 6); assay type: in vivo; settings: post-emergence, 336 h; for pest or weed control at 70 g/ha: 70 g ai/ha; for pest or weed control at 140 g/ha: 140 g ai/ha
Summary of the method: as §1

[3] = ABUTH: velvetleaf (Abutilon theophrasti), read-out: Visual Growth Reduction (%) 14 Days After Application, ABUTH
[4] = AMARE: redroot pigweed (Amaranthus retroflexus), read-out: Visual Growth Reduction (%) 14 Days After Application, AMARE
[5] = BRSNN: oilseed-rape, canola (Brassica napus), read-out: Visual Growth Reduction (%) 14 Days After Application, BRSNN
[6] = CHEAL: lambsquarters (Chenopodium album), read-out: Visual Growth Reduction (%) 14 Days After Application, CHEAL
[7] = EPHHL: wild poinsettia (Euphorbia heterophylla), read-out: Visual Growth Reduction (%) 14 Days After Application, EPHHL
[8] = HELAN: sunflower (Helianthus annuus), read-out: Visual Growth Reduction (%) 14 Days After Application, HELAN
[9] = VIOTR: wild pansy (Viola tricolor), read-out: Visual Growth Reduction (%) 14 Days After Application, VIOTR
[10] = CYPES: yellow nutsedge (Cyperus esculentus), read-out: Visual Growth Reduction (%) 14 Days After Application, CYPES
[11] = DIGSA: crabgrass (Digitaria sanguinalis), read-out: Visual Growth Reduction (%) 14 Days After Application, DIGSA
[12] = ECHCG: barnyardgrass (Echinochloa crus-galli), read-out: Visual Growth Reduction (%) 14 Days After Application, ECHCG
[13] = ORYSA: rice (Oryza sativa), crop, read-out: Visual Growth Reduction (%) 14 Days After Application, ORYSA
[14] = SETFA: giant foxtail (Setaria faberi), read-out: Visual Growth Reduction (%) 14 Days After Application, SETFA
[15] = SORVU: grain sorghum (Sorghum vulgare), read-out: Visual Growth Reduction (%) 14 Days After Application, SORVU
[16] = TRZSS (wheat, Triticum aestivum), crop, read-out: Visual Growth Reduction (%) 14 Days After Application, TRZSS
[17] = ZEAMX: maize, corn (Zea mays), crop, read-out: Visual Growth Reduction (%) 14 Days After Application, ZEAMX

Question: COC(=O)c1nc(-c2ccc(OC(F)F)c(F)c2F)c(F)c(N)c1Cl [Compound 103] was tested. Which pest or weed control at 70 g/ha [1, 3] did it give?
Answer: 45 to 59%

Question: What about the pest or weed control at 140 g/ha [1, 3] of the same compound?
Answer: 45 to 59%

Question: And the pest or weed control at 70 g/ha [1, 4]?
Answer: 0 to 29%

Question: And the pest or weed control at 140 g/ha [1, 4]?
Answer: 0 to 29%

Question: What about the pest or weed control at 70 g/ha [1, 5] of the same compound?
Answer: 0 to 29%

Question: What about the pest or weed control at 140 g/ha [1, 5] of the same compound?
Answer: 30 to 44%

Question: And the pest or weed control at 70 g/ha [1, 6]?
Answer: 0 to 29%

Question: What about the pest or weed control at 140 g/ha [1, 6] of the same compound?
Answer: 85 to 94%

Question: And the pest or weed control at 70 g/ha [1, 7]?
Answer: 0 to 29%

Question: What about the pest or weed control at 140 g/ha [1, 7] of the same compound?
Answer: 0 to 29%

Question: What about the pest or weed control at 70 g/ha [1, 8] of the same compound?
Answer: 75 to 84%

Question: And the pest or weed control at 140 g/ha [1, 8]?
Answer: 75 to 84%

Question: And the pest or weed control at 70 g/ha [1, 9]?
Answer: 0 to 29%

Question: What about the pest or weed control at 140 g/ha [1, 9] of the same compound?
Answer: 0 to 29%

Question: What about the pest or weed control at 70 g/ha [2, 10] of the same compound?
Answer: 0 to 29%

Question: And the pest or weed control at 140 g/ha [2, 10]?
Answer: 45 to 59%

Question: What about the pest or weed control at 70 g/ha [2, 11] of the same compound?
Answer: 0 to 29%

Question: What about the pest or weed control at 140 g/ha [2, 11] of the same compound?
Answer: 0 to 29%

Question: What about the pest or weed control at 70 g/ha [2, 12] of the same compound?
Answer: 0 to 29%

Question: And the pest or weed control at 140 g/ha [2, 12]?
Answer: 0 to 29%

Question: What about the pest or weed control at 70 g/ha [2, 13] of the same compound?
Answer: 0 to 29%

Question: And the pest or weed control at 140 g/ha [2, 13]?
Answer: 0 to 29%

Question: What about the pest or weed control at 70 g/ha [2, 14] of the same compound?
Answer: 0 to 29%

Question: What about the pest or weed control at 140 g/ha [2, 14] of the same compound?
Answer: 0 to 29%

Question: What about the pest or weed control at 70 g/ha [2, 15] of the same compound?
Answer: 0 to 29%

Question: What about the pest or weed control at 140 g/ha [2, 15] of the same compound?
Answer: 0 to 29%

Question: And the pest or weed control at 70 g/ha [2, 16]?
Answer: 0 to 29%

Question: And the pest or weed control at 140 g/ha [2, 16]?
Answer: 0 to 29%

Question: What about the pest or weed control at 70 g/ha [2, 17] of the same compound?
Answer: 0 to 29%

Question: What about the pest or weed control at 140 g/ha [2, 17] of the same compound?
Answer: 0 to 29%
